In patent publication US8809344B2, “Compounds, compositions, and methods for control of hepatitis C viral infections” (priority 2008, dated 2014):

Legend:
Huh7.5 cells = assay: ATP viability assay (CellTiter-Glo) in replicon-harboring Huh7.5 cells; type: cell-based, human; details: 24 hours post-treatment; Huh7.5 cells harboring transient genotype 1b replicon
Protocol: Inhibition of HCV replication by AP0089652, AP0080978 (enantiomer 2 from Example 1) and AP0080977 (enantiomer 1 from Example 1) were assayed by exposing cells harboring an HCV genotype 1b replicons to the compounds and quantitating HCV replicon levels following exposure. The replicon used in these studies was a transient genotype 1b subgenomic replicon generated from the Con1 strain. In this replicon, the HCV internal ribosome entry site (IRES) within the 5′ non-translated region (NTR) drives expression of the first 32 amino acids of the core protein fused to humanized Renilla luciferase (hRluc). The encephalomycarditis IRES lies 3′ to the hRluc open reading frame (ORF) and drives expression of non-structural (NS) proteins NS3 through NS5B. Huh7.5 cells (U.S. patent application Ser. No. 10/534,571) harboring this replicon were seeded into 96-well plates at 20,000 cells per well in medium containing 10% FBS, 1× penicillin/streptomycin, 1× non-essential amino acids, and 100 ng/ml Fungizone. After a four hour attachment period, compound was added to wells using a five point 3-fold serial dilution series with four replicate treatments per dose. […] Compound-mediated HCV inhibition and toxicity were assayed 24 hours post-treatment using Renilla luciferase readout and an ATP viability assay (CellTiter-Glo, Promega, Madison, Wis., USA), respectively. […]

[1] = test system: chimeric APV112 HCV (genotype 2a with genotype 1b NS4B amino acids 53 to 218); assay: HCV APV112 viral infectivity assay in Huh7.5 cells, 3′NTR RNA by realtime quantitative PCR; type: cell-based, hepatitis C virus; details: for Log change in 3′NTR copies relative to 1.0% DMSO (GAPDH normalized): APV112, 48 hours
Protocol: (§1) Inhibition of HCV infectivity by AP0080978 and its analogs (AP0080977, non-active enantiomer; AP0089652, racemate; and AP0080935, an aromatic, non-optically active analog of AP0080978) was assayed by exposing cells with infectious chimeric HCV virions in the presence of the compounds. This was accomplished by use of an HCV cell culture system essentially as described in Pietschmann, T. et al. (2006) 103(19): 7408-13, Proc. Natl. Acad. Sci. USA; and elsewhere. Two viral constructs were utilized to characterize inhibition of viral infectivity (FIG. 4). Construct APV23 (FL-J6/JFH) is a full-length, chimeric, genotype 2a HCV genome containing the HCV core through the NS2 first transmembrane domain coding region from the J6 HCV isolate linked to the second NS2 transmembrane domain NS3 through NS5B coding region of HCV strain JFH-1, as shown in FIG. 4 (i.e. an HCV chimera with the “C3 Junction” described in Pietschmann, T. et al. (2006) Proc. Natl. Acad. Sci. USA 103(19): 7408-13; see page 7409 and FIG. 2A of Pietschmann, T. et al.). Construct APV112 was generated by replacing nucleotides encoding amino acids 53 to 218 of the NS4B gene of the APV23 sequence with a corresponding sequence from a genotype 1b (Con1 strain).
(§2) Huh7.5 cells were plated at a density of 20,000 cells per well in 96-well plates. The cells were exposed to the chimeric HCV virions at a multiplicity of infection of 0.01. Potential inhibitory compounds were added simultaneously with the chimeric virus. Cells were incubated for 48 hours and then the levels of HCV 3′NTR and GAPDH RNA were quantified by realtime quantitative PCR. Data were analyzed by the comparative Ct method with delta-delta Ct determined relative to 1.0% DMSO. Results in FIGS. 5 and 6 are depicted as log change in 3′NTR copies relative to 1.0% DMSO.

[2] = test system: chimeric APV23 (FL-J6/JFH) genotype 2a HCV; assay: HCV APV23 viral infectivity assay in Huh7.5 cells, 3′NTR RNA by realtime quantitative PCR; type: cell-based, hepatitis C virus; details: FIG. 6; genotype 2a NS4B coding region
Protocol: as §1, §2

Compound: O=C(NCc1cccs1)c1nn2c(c1Cl)NC(c1ccco1)CC2C(F)(F)F (stereo not drawn) [Compound 89652, 3-chloro-5-(furan-2-yl)-N-(thiophen-2-ylmethyl)-7-(trifluoromethyl)-4,5,6,7-tetrahydropyrazolo[L5-a]pyrimidine-2-carboxamide]
- CC50 (Huh7.5 cells): > 100 µM
- potency in viral infectivity assays relative to HCV replicon assays [1]: significantly more potent
- Log change in 3′NTR copies relative to 1.0% DMSO (GAPDH normalized) ([1]; 0.02 μM): −0.15
- Log change in 3′NTR copies relative to 1.0% DMSO (GAPDH normalized) ([1]; 0.07 μM): −0.52
- Log change in 3′NTR copies relative to 1.0% DMSO (GAPDH normalized) ([1]; 0.22 μM): −0.85
- Log change in 3′NTR copies relative to 1.0% DMSO (GAPDH normalized) ([1]; 0.67 μM): −1.31
- Log change in 3′NTR copies relative to 1.0% DMSO (GAPDH normalized) ([1]; 2 μM): −1.47
- chimeric APV112 viral infectivity ([1]; FIG. 5, sensitive genotype 1b NS4B region): reduced
- chimeric APV23 viral infectivity [2]: unaffected
